Assay results from paper PMC12018048, “Intranasal kisspeptin administration rapidly stimulates gonadotropin release in humans” (eBioMedicine, 2025).

How the values were obtained:
plasma LH = experiment: Intranasal kisspeptin-54, plasma LH in adult C57BL/6J male mice; format: in vivo, mouse; conditions: for Peak plasma LH level / Integrated LH response, AUC: mean ± SEM; for Peak plasma LH level, mean difference vs placebo: two-way ANOVA; for Integrated LH response, AUC: sampling over 70 min
Protocol: Saline (placebo) or kisspeptin-54 were intranasally administered using a customised and unsharpened 2 mm long and 0.3 mm wide hypodermic needle (BD PrecisionGlide™; 30G; ref. 305106). Male mice were restrained and a single volume of 30 μL of the solution was delivered in one randomly chosen nostril with either 0.9% saline or different concentrations of kisspeptin-54 (1, 3, 12.8, 30, or 50 nM; equivalent to 0.001–0.05 nmol/kg). The protocol involved N = 5 mice per group, except concentrations 12.8 nM where N = 6 and 30 nM where N = 7. […] LH levels were assessed using a tail-tip serial blood sampling as previously reported.[64]^,[65] Briefly, samples containing 4 μL of whole blood were collected every 10 min over a 70-min-long period from each animal. The first sampling point was taken as baseline LH level (−5 min), and saline or kisspeptin-54 were administered at timepoint 0 min. Whole blood was collected into Eppendorf tubes pre-loaded with 50 μL of 0.1 M phosphate-buffered saline (PBS)-0.05% Tween, thoroughly mixed, and snap-frozen with dry ice and stored at −80 °C.
LH levels were measured using an established in-house and ultrasensitive mouse LH ELISA method as previously validated.[66] A primary coating antibody (bovine LHβ subunit, 518B7; L. Sibley; University of California, UC Davis, RRID AB_2756886) was used at a 1:1000 dilution in combination with a detection primary antibody (rabbit LH antiserum, AFP240580Rb, RRID AB_2665533; NIDDK- NHPP) used at 1:10,000 dilution, and a secondary horseradish peroxidase-conjugated antibody (goat anti-rabbit; Vector Laboratories, PI-1000, RRID AB_2336198) used at 1:10,000 dilution. The assay standard curve used a mouse LH-RP (AFP5306A, A. F. Parlow, National Hormone and Peptide Program; supplied by Golden West BioSolutions, California, USA; catalogue # TLIA1053.03). The assay sensitivity of this LH ELISA was 0.04 ng/mL, intra-assay coefficient of variation 4.1%, and inter-assay coefficient of variation 7.3%.
Statistical analyses were performed using GraphPad Prism (version 9.4.1). Data are presented as mean ± SEM. Normality of the data was determined using the Shapiro–Wilk test. The analysis considered increment in LH levels when average post-administration values were above significance (P < 0.05) compared to basal levels (−5 min) using repeated measures two-way ANOVA with Fishers least significant difference (LSD) test. Integrated LH response to kisspeptin-54 administration as indicated using the area under the curve (AUC) analysis when all peaks were above baseline values. The difference in AUC between groups was compared by one-way ANOVA with Fisher’s LSD test. In all cases, P < 0.05 was considered statistically significant.

[1] = Stability of kisspeptin-54 solutions for nasal delivery; format: physicochemical; conditions: for Reduction of the initial concentration: after 60 days, HPLC; for % of initial concentration: chemical stability, 3.5 mg/mL in 0.9% saline, HPLC-UV 220 nm, mean ± SEM, N = 3
Protocol: Kisspeptin-54 3.5 mg/mL solutions, equivalent to the lowest dose used in the human clinical study, were prepared and aliquoted into glass nasal spray devices and sealed amber glass vials (airtight, light protected control). The test materials were stored upright in a single location (4 °C refrigerator with temperature monitoring) with minimal manipulation or movement for 60 days. On each day of analysis, three aliquots were sampled from each container and analysed by HPLC.
Each kisspeptin-54 sample was assayed in triplicate using a Waters 2795 Separation Module HPLC equipped with Waters 2996 Photodiode Array Detector and a Luna® 3 μm C18 100 Å LC Column 150 × 4.6 mm with trimethylsilyl (TMS) end capping used. Injection volume was 25 μL and the mobile phase was a gradient using eluent A (0.05% trifluoroacetic acid (TFA):1% acetonitrile (ACN): 98.95% H20) and eluent B (0.05% TFA in MeOH/ACN 1:1(V/V)) from 20 to 60% eluent B with a flow rate of 1 mL/min and a run time of 15 min. Column temperature was set at 40 °C and ultraviolet (UV) detection at 220 nm. The assay was validated for linearity (r = 0.993), accuracy and precision in the range 0.3–0.7 mg/mL.

Kisspeptin-54
LH AUC, mean difference vs kisspeptin 1 nM (plasma LH; intranasal 3 nM vs 1 nM): 3.6 ng·h/mL | Time of peak LH level after intranasal administration (plasma LH; intranasal 12.8 nM): 25 min | LH AUC, mean difference vs kisspeptin 1 nM (plasma LH; intranasal 12.8 nM vs 1 nM): 22.7 ng·h/mL | LH AUC, mean difference vs kisspeptin 3 nM (plasma LH; intranasal 12.8 nM vs 3 nM): 19.1 ng·h/mL | LH AUC, mean difference vs placebo (plasma LH; intranasal 12.8 nM vs placebo): 17.2 ng·h/mL | Peak plasma LH level (plasma LH; intranasal 12.8 nM, at 25 min, N = 6): 1.9 ± 0.4 ng/mL | Peak plasma LH level, mean difference vs placebo (plasma LH; intranasal 12.8 nM, at 25 min): 1.1 ng/mL | Time of peak LH level after intranasal administration (plasma LH; intranasal 30 nM): 25 min | LH AUC, mean difference vs kisspeptin 1 nM (plasma LH; intranasal 30 nM vs 1 nM): 74.2 ng·h/mL | LH AUC, mean difference vs kisspeptin 3 nM (plasma LH; intranasal 30 nM vs 3 nM): 70.7 ng·h/mL | LH AUC, mean difference vs kisspeptin 12.8 nM (plasma LH; intranasal 30 nM vs 12.8 nM): 51.6 ng·h/mL | LH AUC, mean difference vs placebo (plasma LH; intranasal 30 nM vs placebo): 68.7 ng·h/mL | Peak plasma LH level (plasma LH; intranasal 30 nM, at 25 min, N = 7): 3.6 ± 0.4 ng/mL | Peak plasma LH level, mean difference vs placebo (plasma LH; intranasal 30 nM, at 25 min): 2.8 ng/mL | Time of peak LH level after intranasal administration (plasma LH; intranasal 50 nM): 15 min | LH AUC, mean difference vs kisspeptin 1 nM (plasma LH; intranasal 50 nM vs 1 nM): 92.8 ng·h/mL | LH AUC, mean difference vs kisspeptin 3 nM (plasma LH; intranasal 50 nM vs 3 nM): 89.3 ng·h/mL | LH AUC, mean difference vs kisspeptin 12.8 nM (plasma LH; intranasal 50 nM vs 12.8 nM): 70.2 ng·h/mL | LH AUC, mean difference vs kisspeptin 30 nM (plasma LH; intranasal 50 nM vs 30 nM): 18.6 ng·h/mL | LH AUC, mean difference vs placebo (plasma LH; intranasal 50 nM vs placebo): 87.3 ng·h/mL | Peak plasma LH level (plasma LH; intranasal 50 nM, at 15 min, N = 5): 4.0 ± 1.0 ng/mL | Peak plasma LH level, mean difference vs placebo (plasma LH; intranasal 50 nM, at 15 min): 2.9 ng/mL | Integrated LH response, AUC (plasma LH; intranasal 30 μL of 1 nM, N = 5): 75.5 ± 6.3 ng·h/mL | Integrated LH response, AUC (plasma LH; intranasal 30 μL of 3 nM, N = 5): 79.1 ± 5.8 ng·h/mL | Integrated LH response, AUC (plasma LH; intranasal 30 μL of 12.8 nM, N = 6): 98.2 ± 15.5 ng·h/mL | Integrated LH response, AUC (plasma LH; intranasal 30 μL of 30 nM, N = 7): 149.7 ± 13.3 ng·h/mL | Integrated LH response, AUC (plasma LH; intranasal 30 μL of 50 nM, N = 5): 168.3 ± 38.5 ng·h/mL | Adverse effects leading to pain, distress, or illness (plasma LH; intranasal, first 72-h follow-up period): did not observe any adverse effects | Time within pharmaceutically accepted limits for stability ([1]; 0.9% saline solution, 4 °C): up to 60 days | Appearance of the solution (clear when freshly made) ([1]; 0.9% saline, 4 °C, 60 days of storage, either container type): no change was observed | Reduction of the initial concentration ([1]; 0.9% saline, 4 °C, glass nasal spray devices): 5.4% | Reduction of the initial concentration ([1]; 0.9% saline, 4 °C, sealed amber glass vials): 5.0% | % of initial concentration ([1]; 4 °C in nasal spray, 4 days): 98.06 ± 1.11% | % of initial concentration ([1]; 4 °C in nasal spray, 7 days): 98.28 ± 0.69% | % of initial concentration ([1]; 4 °C in nasal spray, 14 days): 97.90 ± 0.67% | % of initial concentration ([1]; 4 °C in nasal spray, 28 days): 96.11 ± 0.51% | % of initial concentration ([1]; 4 °C in nasal spray, 60 days): 94.56 ± 1.67% | % of initial concentration ([1]; 4 °C in sealed amber vial, 4 days): 98.94 ± 0.57% | % of initial concentration ([1]; 4 °C in sealed amber vial, 7 days): 98.69 ± 0.58% | % of initial concentration ([1]; 4 °C in sealed amber vial, 14 days): 97.91 ± 0.64% | % of initial concentration ([1]; 4 °C in sealed amber vial, 28 days): 97.32 ± 0.56% | % of initial concentration ([1]; 4 °C in sealed amber vial, 60 days): 95.01 ± 1.45%
